Measurements reported in ChEMBL document CHEMBL6127009, “Discovery of L15 as a novel Vif PROTAC degrader with antiviral activity against HIV-1” (Bioorg Med Chem Lett, 2024).
Counter-ions that a name gives are not always drawn. Active and inactive are the calls of the source. No cut-off for these calls is given here.

Columns and labels:
[1] = test system: Human immunodeficiency virus 1; assay: Antiviral activity against HIV-1 IIIB infected in TZM-bl cells; format: functional, organism-based; settings: Human immunodeficiency virus 1, IIIB
[2] = Cytotoxicity against human TZM-bl cells; format: toxicity, cell-based
[3] = Therapeutic index, ratio of CC50 for human TZM-bl cells to EC50 for HIV IIIB infected in TZM-bl cells; format: toxicity, cell-based; settings: read-out: Ratio CC50/EC50
[4] = molecular target: T1, Protein cereblon/Virion infectivity factor (Human immunodeficiency virus type 1 group M subtype B (isolate NY5)(HIV-1)) (UniProt Q96SW2+P12504); assay: PROTAC activity at CRBN (unknown origin)/Vif in HIV-1 TREX-hvif-15 cells assessed as reduction in Vif protein level at 50 uM pretreated with MG132 followed by compound addition and measured after 24 hrs by Western blotting analysis; format: cell-based; settings: TREX-hvif-15 cell
[5] = test system: Human immunodeficiency virus 1; assay: Antiviral activity against HIV-1 9498 infected in C8166 cells; format: functional, organism-based; settings: Human immunodeficiency virus 1, 9498, C8166
[6] = test system: Human immunodeficiency virus 1; assay: Antiviral activity against HIV-1 KIZ002 infected in PHA-P stimulated PBMCs; format: functional, organism-based; settings: Human immunodeficiency virus 1, KIZ002, PBMC
[7] = test system: Human immunodeficiency virus 1; assay: Antiviral activity against HIV-1 WAN infected in PHA-P stimulated PBMCs; format: functional, organism-based; settings: Human immunodeficiency virus 1, WAN, PBMC
[8] = test system: Human immunodeficiency virus 1; assay: Antiviral activity against HIV1 at 1 uM measured after 2 to 4 hrs; format: functional, organism-based; settings: time 2-4 hrs
[9] = test system: Human immunodeficiency virus 1; assay: Antiviral activity against HIV1 at 1 uM measured after 8 hrs; format: functional, organism-based
[10] = test system: Human immunodeficiency virus 1; assay: Antiviral activity against HIV-1 IIIB infected in C8166 cells; format: functional, organism-based; settings: Human immunodeficiency virus 1, IIIB
[11] = test system: Human immunodeficiency virus 1; assay: Antiviral activity against HIV-1 G140S/Q148H infected in C8166 cells; format: functional, organism-based; settings: Human immunodeficiency virus 1, G140S/Q148H
[12] = test system: Human immunodeficiency virus 1; assay: Antiviral activity against HIV-1 4755-5 infected in C8166 cells; format: functional, organism-based; settings: Human immunodeficiency virus 1, 4755-5, C8166
[13] = test system: Human immunodeficiency virus 1; assay: Antiviral activity against HIV-1 A17 infected in C8166 cells; format: functional, organism-based; settings: Human immunodeficiency virus 1, A17, C8166
[14] = molecular target: T1, Protein cereblon/Virion infectivity factor (Human immunodeficiency virus type 1 group M subtype B (isolate NY5)(HIV-1)); assay: PROTAC activity at CRBN (unknown origin)/Vif in HIV-1 TREX-hvif-15 cells assessed as reduction in Vif protein level at 50 uM by Western blotting analysis; format: cell-based; settings: TREX-hvif-15 cell
[15] = test system: Human immunodeficiency virus 1; assay: Antiviral activity against HIV-1 2802 infected in C8166 cells; format: functional, organism-based; settings: Human immunodeficiency virus 1, 2802, C8166

T1 sequence (P12504 whole entry, looked up): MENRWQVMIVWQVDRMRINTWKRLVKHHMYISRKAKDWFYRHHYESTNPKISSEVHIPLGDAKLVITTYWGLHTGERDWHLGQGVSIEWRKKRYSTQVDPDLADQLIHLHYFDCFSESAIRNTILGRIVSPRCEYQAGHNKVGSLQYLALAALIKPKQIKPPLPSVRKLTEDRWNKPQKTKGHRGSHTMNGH
T1 sequence (Q96SW2 whole entry, looked up): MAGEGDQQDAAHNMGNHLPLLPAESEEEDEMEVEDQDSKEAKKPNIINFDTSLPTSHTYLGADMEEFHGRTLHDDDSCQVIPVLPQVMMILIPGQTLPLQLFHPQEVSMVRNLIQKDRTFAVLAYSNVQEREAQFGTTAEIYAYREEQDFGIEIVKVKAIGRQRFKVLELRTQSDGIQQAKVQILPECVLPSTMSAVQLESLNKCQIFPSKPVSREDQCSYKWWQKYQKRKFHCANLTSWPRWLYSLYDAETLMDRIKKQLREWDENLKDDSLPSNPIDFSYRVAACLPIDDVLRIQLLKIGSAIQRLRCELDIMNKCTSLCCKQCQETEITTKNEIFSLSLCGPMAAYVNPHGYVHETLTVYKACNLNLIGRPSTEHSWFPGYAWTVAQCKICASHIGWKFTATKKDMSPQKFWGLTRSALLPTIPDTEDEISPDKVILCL

Row | Compound | EC50 [1] | CC50 [2] | further results
1 | COc1ccc(OCC(=O)NCCCCCCCCNc2cccc3c2C(=O)N(C2CCC(=O)NC2=O)C3=O)cc1NC(=O)c1c(N)cccc1S(=O)(=O)c1ccc([N+](=O)[O-])cc1 (centres undefined) | > 100 µM | > 200 µM | 
2 | COc1ccc(OCC(=O)NCCNCC(=O)Nc2cccc3c2C(=O)N(C2CCC(=O)NC2=O)C3=O)cc1NC(=O)c1c(N)cccc1Sc1ccc([N+](=O)[O-])cc1 (centres undefined) | > 100 µM | > 200 µM | 
3 | COc1ccc(OCC(=O)NCCOCCOCCNCC(=O)Nc2cccc3c2C(=O)N(C2CCC(=O)NC2=O)C3=O)cc1NC(=O)c1c(N)cccc1Sc1ccc([N+](=O)[O-])cc1 (centres undefined) | 53.1 µM | > 200 µM | selectivity ratio [3]: > 3.77
4 | COc1ccc(OCC(=O)NCCCCCCNc2cccc3c2C(=O)N(C2CCC(=O)NC2=O)C3=O)cc1NC(=O)c1c(N)cccc1S(=O)(=O)c1ccc([N+](=O)[O-])cc1 (centres undefined) | > 100 µM | > 200 µM | 
5 | COc1ccc(OCC(=O)NCCOCCOCCNc2cccc3c2C(=O)N(C2CCC(=O)N(C)C2=O)C3=O)cc1NC(=O)c1c(N)cccc1Sc1ccc([N+](=O)[O-])cc1 (centres undefined) |  |  | Activity [4]: inactive
6 | enfuvirtide |  |  | EC50 [5]: > 10 µM
7 | COc1ccc(OCC(=O)NCCOCCNc2cccc3c2C(=O)N(C2CCC(=O)NC2=O)C3=O)cc1NC(=O)c1c(N)cccc1S(=O)(=O)c1ccc([N+](=O)[O-])cc1 (centres undefined) | > 100 µM | > 200 µM | 
8 | COc1ccc(OCC(=O)NCCCCCCNc2cccc3c2C(=O)N(C2CCC(=O)NC2=O)C3=O)cc1NC(=O)c1c(N)cccc1Sc1ccc([N+](=O)[O-])cc1 (centres undefined) | > 100 µM | > 200 µM | 
9 | COc1ccc(OCC(=O)NCCCCCCCCCCNCC(=O)Nc2cccc3c2C(=O)N(C2CCC(=O)NC2=O)C3=O)cc1NC(=O)c1c(N)cccc1Sc1ccc([N+](=O)[O-])cc1 (centres undefined) | > 100 µM | > 200 µM | 
10 | COc1ccc(OCC(=O)NCCCCCCCCCCNCC(=O)Nc2cccc3c2C(=O)N(C2CCC(=O)NC2=O)C3=O)cc1NC(=O)c1c(N)cccc1S(=O)(=O)c1ccc([N+](=O)[O-])cc1 (centres undefined) | 29 µM | > 200 µM | selectivity ratio [3]: > 6.9
11 | COc1ccc(OCC(=O)NCCOCCOCCOCCNc2cccc3c2C(=O)N(C2CCC(=O)NC2=O)C3=O)cc1NC(=O)c1c(N)cccc1S(=O)(=O)c1ccc([N+](=O)[O-])cc1 (centres undefined) | > 100 µM | > 200 µM | 
12 | Nc1ccn([C@@H]2CS[C@H](CO)O2)c(=O)n1 [LAMIVUDINE] |  |  | EC50 [6]: 0.09 µM; EC50 [7]: 0.15 µM; Activity [8]: Active; Activity [9]: inactive; EC50 [10]: 0.16 µM; EC50 [11]: 5.61 µM; EC50 [12]: 76.9 µM; EC50 [13]: 0.28 µM
13 | COc1ccc(O)cc1NC(=O)c1c(N)cccc1S(=O)(=O)c1ccc([N+](=O)[O-])cc1 | 2.14 µM | > 200 µM | selectivity ratio [3]: > 93.5; Activity [14]: inactive
14 | CC(C)CN(C[C@@H](O)[C@H](Cc1ccccc1)NC(=O)O[C@H]1CO[C@H]2OCC[C@H]21)S(=O)(=O)c1ccc(N)cc1 [DARUNAVIR] |  |  | EC50 [15]: < 0.032 µM
15 | COc1ccc(OCC(=O)NCCOCCOCCNCC(=O)Nc2cccc3c2C(=O)N(C2CCC(=O)NC2=O)C3=O)cc1NC(=O)c1c(N)cccc1S(=O)(=O)c1ccc([N+](=O)[O-])cc1 (centres undefined) | 66.9 µM | > 200 µM | selectivity ratio [3]: > 2.99
16 | COc1ccc(OCC(=O)NCCCCNCC(=O)Nc2cccc3c2C(=O)N(C2CCC(=O)NC2=O)C3=O)cc1NC(=O)c1c(N)cccc1S(=O)(=O)c1ccc([N+](=O)[O-])cc1 (centres undefined) | > 100 µM | > 200 µM | 
17 | COc1ccc(O)cc1NC(=O)c1c(N)cccc1Sc1ccc([N+](=O)[O-])cc1 | 5.97 µM | > 200 µM | selectivity ratio [3]: > 33.5; Activity [14]: inactive
18 | COc1ccc(OCC(=O)NCCCCCCCCNCC(=O)Nc2cccc3c2C(=O)N(C2CCC(=O)NC2=O)C3=O)cc1NC(=O)c1c(N)cccc1S(=O)(=O)c1ccc([N+](=O)[O-])cc1 (centres undefined) | > 100 µM | > 200 µM | 
19 | COc1ccc(OCC(=O)NCCCCCCCCCCNc2cccc3c2C(=O)N(C2CCC(=O)NC2=O)C3=O)cc1NC(=O)c1c(N)cccc1Sc1ccc([N+](=O)[O-])cc1 (centres undefined) | > 100 µM | > 200 µM | 
20 | CC(C)OC(=O)OCOP(=O)(CO[C@H](C)Cn1cnc2c(N)ncnc21)OCOC(=O)OC(C)C [TENOFOVIR DISOPROXIL FUMARATE] | 0.005 µM | > 200 µM | selectivity ratio [3]: > 43800
21 | COc1ccc(OCC(=O)NCCCCCCCCNCC(=O)Nc2cccc3c2C(=O)N(C2CCC(=O)NC2=O)C3=O)cc1NC(=O)c1c(N)cccc1Sc1ccc([N+](=O)[O-])cc1 (centres undefined) | > 100 µM | > 200 µM | 

Continued, in another order:

Row | EC50 [1] | Compound | CC50 [2] | further results
22 | > 100 µM | COc1ccc(OCC(=O)NCCOCCOCCOCCNCC(=O)Nc2cccc3c2C(=O)N(C2CCC(=O)NC2=O)C3=O)cc1NC(=O)c1c(N)cccc1Sc1ccc([N+](=O)[O-])cc1 (centres undefined) | > 200 µM | 
23 | > 100 µM | COc1ccc(OCC(=O)NCCCCNCC(=O)Nc2cccc3c2C(=O)N(C2CCC(=O)NC2=O)C3=O)cc1NC(=O)c1c(N)cccc1Sc1ccc([N+](=O)[O-])cc1 (centres undefined) | > 200 µM | 
24 | > 100 µM | COc1ccc(OCC(=O)NCCNCC(=O)Nc2cccc3c2C(=O)N(C2CCC(=O)NC2=O)C3=O)cc1NC(=O)c1c(N)cccc1S(=O)(=O)c1ccc([N+](=O)[O-])cc1 (centres undefined) | > 200 µM | 
25 | > 100 µM | COc1ccc(OCC(=O)NCCOCCNCC(=O)Nc2cccc3c2C(=O)N(C2CCC(=O)NC2=O)C3=O)cc1NC(=O)c1c(N)cccc1Sc1ccc([N+](=O)[O-])cc1 (centres undefined) | > 200 µM | 
26 | > 100 µM | COc1ccc(OCC(=O)NCCCCCCNCC(=O)Nc2cccc3c2C(=O)N(C2CCC(=O)NC2=O)C3=O)cc1NC(=O)c1c(N)cccc1S(=O)(=O)c1ccc([N+](=O)[O-])cc1 (centres undefined) | > 200 µM | 
27 | > 100 µM | COc1ccc(OCC(=O)NCCCCCCCCNc2cccc3c2C(=O)N(C2CCC(=O)NC2=O)C3=O)cc1NC(=O)c1c(N)cccc1Sc1ccc([N+](=O)[O-])cc1 (centres undefined) | > 200 µM | 
28 | > 100 µM | COc1ccc(OCC(=O)NCCCCCCCCCCNc2cccc3c2C(=O)N(C2CCC(=O)NC2=O)C3=O)cc1NC(=O)c1c(N)cccc1S(=O)(=O)c1ccc([N+](=O)[O-])cc1 (centres undefined) | > 200 µM | 
29 | > 100 µM | COc1ccc(OCC(=O)NCCOCCOCCOCCNc2cccc3c2C(=O)N(C2CCC(=O)NC2=O)C3=O)cc1NC(=O)c1c(N)cccc1Sc1ccc([N+](=O)[O-])cc1 (centres undefined) | > 200 µM | 
30 | > 100 µM | COc1ccc(OCC(=O)NCCOCCOCCNc2cccc3c2C(=O)N(C2CCC(=O)NC2=O)C3=O)cc1NC(=O)c1c(N)cccc1S(=O)(=O)c1ccc([N+](=O)[O-])cc1 (centres undefined) | > 200 µM | 
31 | > 100 µM | COc1ccc(OCC(=O)NCCCCCCNCC(=O)Nc2cccc3c2C(=O)N(C2CCC(=O)NC2=O)C3=O)cc1NC(=O)c1c(N)cccc1Sc1ccc([N+](=O)[O-])cc1 (centres undefined) | > 200 µM | 
32 | > 100 µM | COc1ccc(OCC(=O)NCCOCCNc2cccc3c2C(=O)N(C2CCC(=O)NC2=O)C3=O)cc1NC(=O)c1c(N)cccc1Sc1ccc([N+](=O)[O-])cc1 (centres undefined) | > 200 µM | 
33 | > 100 µM | COc1ccc(OCC(=O)NCCCCNc2cccc3c2C(=O)N(C2CCC(=O)NC2=O)C3=O)cc1NC(=O)c1c(N)cccc1S(=O)(=O)c1ccc([N+](=O)[O-])cc1 (centres undefined) | > 200 µM | 
34 | 34.8 µM | COc1ccc(OCC(=O)NCCCCNc2cccc3c2C(=O)N(C2CCC(=O)NC2=O)C3=O)cc1NC(=O)c1c(N)cccc1Sc1ccc([N+](=O)[O-])cc1 (centres undefined) | > 200 µM | selectivity ratio [3]: > 5.76
35 | > 100 µM | COc1ccc(OCC(=O)NCCNc2cccc3c2C(=O)N(C2CCC(=O)NC2=O)C3=O)cc1NC(=O)c1c(N)cccc1Sc1ccc([N+](=O)[O-])cc1 (centres undefined) | > 200 µM | 
36 | > 100 µM | COc1ccc(OCC(=O)NCCNc2cccc3c2C(=O)N(C2CCC(=O)NC2=O)C3=O)cc1NC(=O)c1c(N)cccc1S(=O)(=O)c1ccc([N+](=O)[O-])cc1 (centres undefined) | > 200 µM | 
37 | > 100 µM | COc1ccc(OCC(=O)NCCOCCNCC(=O)Nc2cccc3c2C(=O)N(C2CCC(=O)NC2=O)C3=O)cc1NC(=O)c1c(N)cccc1S(=O)(=O)c1ccc([N+](=O)[O-])cc1 (centres undefined) | > 200 µM | 
38 | 21.3 µM | COc1ccc(OCC(=O)NCCOCCOCCOCCNCC(=O)Nc2cccc3c2C(=O)N(C2CCC(=O)NC2=O)C3=O)cc1NC(=O)c1c(N)cccc1S(=O)(=O)c1ccc([N+](=O)[O-])cc1 (centres undefined) | > 200 µM | selectivity ratio [3]: > 9.39
